Reference: US20040038888A1 (priority 2002, published 2004)

Experiments:
[1] = tested on: primary adult NSC; experiment: Culture of neurospheres for counting and photographing; assay type: cell-based, mouse; conditions: PACAP 100 nM in place of EGF, 7 days, versus control
Experimental: Anterior lateral wall of the lateral ventricle was dissociated as described in Example 2 (Method A), and the cells resuspended in Neurosphere medium without EGF. The cell suspension was divided into a 24-well plate with triplicates of control (no addition), PACAP treated and EGF (1 nM) treated cells. The final concentration of PACAP was 100 nM. After 7 days the spheres were counted and photographed using a Nikon Eclipse TE300 microscope and Nikon Spot Insight camera.

[2] = tested on: differentiating neural stem cells; experiment: Thymidine incorporation, differentiating adult mouse NSC, adherent culture; assay type: cell-based; conditions: adherent conditions, 3 days, relative to controls
Experimental: To determine thymidine incorporation into DNA, mouse neurospheres, cultured as described above, from passage 2, were seeded in DMEM/F12 supplemented with B27 and 1% Fetal Calf Serum into a 96-well plate coated with poly-D-lysine as single cells (30000 cells/well) and cultured over-night. The following day the medium was replaced with Neurosphere medium and PACAP added to the concentrations indicated for a further 3 days. 3H-thymidine, 10 uCi/ml, was present the last 24 hours. Cells were harvested on to a filter paper and radioactivity was measured. 3H-thymidine (6,7 Ci/mmol) was from PerkinElmer.

[3] = tested on: hippocampal neurogenesis; experiment: PACAP/BrdU infusion, BrdU/NeuN co-labelling of the dentate gyrus; assay type: in vivo, mouse; conditions: 600 nM pump concentration, 0.5 μl/hr, 7 days infusion plus 10 days survival, relative to vehicle
Experimental: 10 week old male mice (C57B1/2), maintained on a 12 hr light/dark cycle with food and water ad libidum, were infused in the right lateral ventricle with PACAP38 (Bachem), using a Alzet pump (1007D), for 3,5 days or 7 days at a daily dose of 31 ng/day (600 nM PACAP pump concentration infused at a rate of 0.5 μl/hr). Bromodeoxyuridine (BrdU) (50 mg/ml) was also included in the infusion vehicle (0.9% saline containing 1 mg/ml mouse serum albumin (Sigma)) to enable measurement of proliferation by quantitation of BrdU incorporation in the DNA. The group of infused with either PACAP/BrdU or vehicle/BrdU for 3,5 days and sacrificed at this time point. The group infused with either PACAP/BrdU or vehicle/BrdU for 7 days were allowed to survive a further 10 days. After the allotted time the mice were sacrificed, perfused with PBS the brains removed and frozen at −70° C. prior to sectioning for immumohistochemical analysis.
The procedure for doubling labeling of BrdU with NeuN was performed sequentially. […]
For all BrdU/NeuN co-labelling experiments, one to two sections per animal were analysed. […] The number of BrdU/NeuN-labelled cells per area of dentate granule cell layer was counted manually. […] Results of the dentate gyrus BrdU/NeuN counts are expressed as the average number of BrdU/NeuN-positive cells per dentate gyrus for each individual animal and reported as the mean ±SEM.

[4] = tested on: mouse adult neural stem cells; experiment: Thymidine incorporation, adult mouse NSC, non-adherent culture; assay type: cell-based; conditions: non-adherent conditions, 3 days, all PACAP treatments relative to controls
Experimental: To determine thymidine incorporation into DNA, neurospheres were split and seeded in Neurosphere medium as single cells in 96-well plates, 10,000 cells/well. Substances to be measured were added in quadruplicates and cells were incubated at 37° C. for 3 days. 3H-thymidine, 10 uCi/ml, was present the last 24 hours. Cells were harvested on to a filter paper and radioactivity was measured. 3H-thymidine (6,7 Ci/mmol) was from PerkinElmer.

Q: For “pituitary adenylate cyclase-activating polypeptide [PACAP]”, which “sizes and number of neurospheres” value [1] is on record?
A: The value was “observably greater than that of the control”.

Q: What about the “incorporation of tritiated thymidine” value [2] of the same substance?
A: The value was “No significant difference”.

Q: And the “neurogenesis in the ipsilateral dentate gyrus (BrdU/NeuN positive cells/dentate gyrus)” value [3]?
A: The value was “increase in neurogenesis”.

Q: And the “incorporation of tritiated thymidine” value [4]?
A: Its value is “Greater incorporation of tritiated thymidine”.
